# Laboratory results from patent US10351613B2, “Polypeptide for inhibition of tumor” (G-Bio Pharma Tech Co., Ltd., priority 2015, dated 2019).
# Like-named read-outs stand apart in the source and are kept apart here. Residues, ends and D or L forms follow the SMILES beside them.
# Key:
# [1] = tested on: Human liver cancer BEL7404 tumor model; assay type: in vivo; conditions: for Tumor inhibitor rate (%): BEL7404, day 21, polypeptides 15 mg/kg sc 2 times per day 21 days, endostatin/endostar 50 mg/kg sc, CTX 30 mg/kg ip 7 days; for toxic reaction: BEL7404 model, same regimens
# Protocol: In vitro cultured tumor cells in exponential phase and in good state were formulated to a 100 μl cell suspension containing 5×10^6 tumor cells. The suspension was subcutaneously inoculated to nude mice. Well-grown solid tumors were obtained 15 days later and cut into uniform pieces of about 3 mm under sterile condition. Each nude mouse was inoculated by one piece through a trocar. Mice were re-grouped according the tumor size 10-14 days after inoculation and animals having too large and too small tumor were excluded from the test. The average tumor volume for each group was basically identical. Test drugs were administered to each group according to the experimental protocol. The major axis (a) and minor axis (b) of the tumor were measured twice a week. Animals were sacrificed at the end of the test. The tumor was taken out, weighed and photos were taken. Tumor volume (TV)=½×a×b^2; Relative tumor volume (RTV)=Vt/Vo, wherein Vo is the tumor volume measured before grouping (one day before administration of the test drug), and Vt is the tumor volume measured at each time. Tumor inhibition rate (%)=(1−T/C)×100%, wherein T is the average tumor volume of the treatment group and C is the average tumor volume of the negative control group.
# The amino acid sequence of recombination endostatin (“endostatin”) was set forth in SEQ ID NO: 1, and the amino acid sequence of the marketed drug Endostar (“endostar”) was set forth in SEQ ID NO: 10. Human liver cancer BEL7404 tumor model was constructed according to the method described in Example 10. The test contained 6 groups, with 6 animals in each group, except for the negative control group which contained 9 animals. The molar dose of the polypeptides was basically equal to the molar dose of endostatin. The results are shown in FIGS. 11a and 11b and the following Table.
# BEL7402 (Liver cancer) = assay: MTT in vitro inhibition of BEL7402; assay type: cell-based
# Protocol: (§1) Inhibition of cell growth was detected by a MTT method, which is based on the principle that succinate dehydrogenase in the mitochondria of the live cells could reduce the exogenous MTT (3-(4,5-dimethyl-2-thiazolyl)-2,5-diphenyl-tetrazolium bromide) to a […] Formazan which is a blue-violet crystal, and precipitates in the cells, while the death cells could not reduce MTT. DMSO could dissolve Formazan in the cells. Absorbance value of the solution was determined at 490/570 nm by microplate reader, which could indirectly indicate the amount of the live cells. The amount of the crystal from MTT is proportional to the amount of the cells within a certain range of cell number. The supernate from the HUVEC or tumor cells in exponential phase was removed and the cells were washed by PBS once. 1 ml 0.25% trypsin (4° C.) was added for digestion at 37° C. for 2 min. Then the supernate was added for neutralization and the cells were dispersed to form a suspension and the suspension was centrifuged at 1000 rpm for 3 min. The supernate was removed and 5 ml culture mediums were added for resuspension. Cells were inoculated in a 48-well plate by 500 ul/well at the concentration of 3×10^4/ml and then incubated under 5% CO2, 37° C. for 24 hours. The supernate was removed and a culture medium containing polypeptide (Zn^2+ in the culture medium was present at the concentration of 17.39 μmol/L) was added for further incubation for 48 hours. Supernate in each well was carefully removed. The well was gently washed by PBS once in an amount of 450 μl/well. 450 μl MTT culture mediums were added into each well for further cultivation for 4 hours. The supernate was carefully discarded. DMSO was added in an amount of 450 μl/well and then the plate was placed in a shaking bed for oscillation for 10 min in dark. 150 μl supernates were transferred to a 96-well ELISA plate and absorbance value of each well was detected at 490 nm and 570 nm by the microplate reader.
# (§2) P2 (SEQ ID NO:2) and P2T2S18 (SEQ ID NO:6) were tested for their in vitro inhibition on SMMC7221, SPC-A-1, A549, LS174T, BEL7402, CK-MES-1 and BxPC-3 at a polypeptide concentration of 1 mg/ml according to the method described in Example 3. Results are shown in FIG. 9 and the following Table. […] All IC50 concentrations for P2T2S18 are less than 1/10 IC50 concentration of P2.
# [2] = tested on: Human Umbilical Vein Endothelial Cell (HUVEC); assay type: cell-based
# Protocol: 20 cm umbilical cord adjacent to fetus was taken, cleaned by washing, ligated at both ends, placed into 150 ml preservation solutions for umbilical cord, and stored in a 4° C. refrigerator for digestion for 6 hours. The umbilical cord was inspected to remove the damaged portion. The umbilical vein was thoroughly cleaned by washing and then 10 ml collagenase solution was injected. Then the umbilical vein was transferred to a 37° C. incubator for digestion for 15 minutes. The umbilical cord was removed and the digested solution was recovered. The digested solution was washed by PBS and centrifuged. After centrifugation, the cells were culture by re-suspension.
# as §1
# [3] = tested on: BxPC-3 (pancreatic cancer); assay: MTT in vitro inhibition of BxPC-3; assay type: cell-based
# Protocol: as §1, §2
# [4] = tested on: lung cancer cell line SPC-A-1; assay: In vitro death of SPC-A-1 tumor cell observed under optical microscope; assay type: cell-based; conditions: SPC-A-1, 2.5 mg/ml
# Protocol: Polypeptides were tested for their effect in inducing cell death of lung cancer cell line SPC-A-1 at a polypeptide concentration of 2.5 mg/ml according to the method described in Example 3. Cells were observed under an optical microscope over 24 hours and photos were taken. P2 exerts its function 4 hours after being added into the culture medium. […] On the contrary, they extremely swelled. 4 hours later cells further swelled and began to disintegrate at 8 hours. […] The manner of P2T2S18 caused cell death is very surprising. Currently, it is unable to determine what manner this kind of cell death belongs to. No report is found in papers as well. However, this mode of cell death is obviously different from that caused by P2. Together with the results in Example 7, it can conclude that P2T2S18 not only has a biological activity obviously higher than P2, but also has a manner causing cell death obviously different from that of P2.
# [5] = tested on: CK-MES-1 (lung squamous cell carcinoma); assay: MTT in vitro inhibition of CK-MES-1; assay type: cell-based
# Protocol: as §1, §2
# SMMC7721 (Liver cancer) = assay: MTT in vitro inhibition of SMMC7721; assay type: cell-based
# Protocol: as §1, §2
# tumor cell HepG2 = assay type: cell-based
# Protocol: as §1
# LS174T (Colon cancer) = assay type: cell-based
# Protocol: as §1, §2
# SPC-A-1 (lung carcinoma) = assay type: cell-based
# Protocol: as §1, §2
# A549 (lung carcinoma) = assay: MTT in vitro inhibition of A549; assay type: cell-based
# Protocol: as §1, §2
molecule,measurement,setting,value
"O=P1(N(CCCl)CCCl)NCCCO1 (stereo not shown) [CTX, Cyclophosphamide, reference compound]",Tumor inhibitor rate (%),[1],68.0%
same,toxic reaction,[1],typical chemotherapeutic toxic side effect
CC[C@H](C)[C@H](NC(=O)CNC(=O)[C@H](CCCNC(=N)N)NC(=O)[C@H](CCSC)NC(=O)CNC(=O)CNC(=O)[C@H](CO)NC(=O)[C@H](CC(C)C)NC(=O)[C@H](CO)NC(=O)[C@H](CO)NC(=O)[C@H](CC(N)=O)NC(=O)[C@H](CC(C)C)NC(=O)[C@H](C)NC(=O)[C@@H](NC(=O)[C@H](CC(C)C)NC(=O)[C@H](Cc1c[nH]cn1)NC(=O)[C@H](CC(C)C)NC(=O)[C@@H](NC(=O)[C@@H]1CCCN1C(=O)[C@H](CCC(N)=O)NC(=O)[C@H](Cc1ccccc1)NC(=O)[C@H](CC(=O)O)NC(=O)[C@H](CCCNC(=N)N)NC(=O)[C@H](Cc1c[nH]cn1)NC(=O)[C@@H](NC(=O)[C@H](Cc1c[nH]cn1)NC(C)=O)[C@@H](C)O)C(C)C)C(C)C)C(=O)N[C@@H](CCCNC(=N)N)C(=O)NCC(=O)N[C@@H](C)C(=O)N[C@@H](CC(=O)O)C(N)=O [Polypeptide P2T2S18] (Ac-HTHRDFQPVLHLVALNSSLSGGMRGIRGAD-NH2),IC50,BEL7402 (Liver cancer); BEL7402,64.9 µg/mL
same,Cell Survival (%) at a polypeptide concentration of 1 mg/ml,"BEL7402 (Liver cancer); BEL7402, 1 mg/ml",4%
same,IC50 (ug/ml) HUVEC,[2],66.7 µg/mL
same,"Cell Survival (%), 1 mg/ml of polypeptide, HUVEC",[2],2%
same,Cell Survival (%) at a polypeptide concentration of 120 μM,"[2]; 6 h, 120",2%
same,reduction of IC50 concentration as compared to that of P2,[2]; HUVEC and HepG2,about 10 folds
same,IC50,[3]; BxPC-3,78.1 µg/mL
same,Cell Survival (%) at a polypeptide concentration of 1 mg/ml,"[3]; BxPC-3, 1 mg/ml",3%
same,time after being added into the culture medium at which the polypeptide acts on the cells,[4],2 h
same,state of cells at 24 hours,[4]; 24 hours,only cell debrises left
same,manner of induced cell death,[4]; optical microscope,"cells did not shrink. On the contrary, they extremely swelled"
same,IC50,[5]; CK-MES-1,66.7 µg/mL
same,Cell Survival (%) at a polypeptide concentration of 1 mg/ml,"[5]; CK-MES-1, 1 mg/ml",7%
same,IC50,SMMC7721 (Liver cancer); SMMC7721,76.9 µg/mL
same,Cell Survival (%) at a polypeptide concentration of 1 mg/ml,"SMMC7721 (Liver cancer); SMMC7721, 1 mg/ml",9%
same,IC50 (ug/ml) HepG2,tumor cell HepG2,76.9 µg/mL
same,"Cell Survival (%), 1 mg/ml of polypeptide, HepG2",tumor cell HepG2; 1,4%
same,Tumor inhibitor rate (%),[1],76.7%
same,toxic reaction,[1],did not produce toxic reaction
same,IC50,LS174T (Colon cancer),84.7 µg/mL
same,Cell Survival (%) at a polypeptide concentration of 1 mg/ml,LS174T (Colon cancer); 1 mg/ml,1%
same,IC50,SPC-A-1 (lung carcinoma); SPC-A-1,80.6 µg/mL
same,Cell Survival (%) at a polypeptide concentration of 1 mg/ml,"SPC-A-1 (lung carcinoma); SPC-A-1, 1 mg/ml",16%
same,IC50 concentration as fraction of IC50 concentration of P2,SPC-A-1 (lung carcinoma); all seven tumor cell lines of Example 10,less than 1/10
same,IC50,A549 (lung carcinoma); A549,72.5 µg/mL
same,Cell Survival (%) at a polypeptide concentration of 1 mg/ml,"A549 (lung carcinoma); A549, 1 mg/ml",18%
CC[C@H](C)[C@H](NC(=O)CNC(=O)[C@H](CCCNC(=N)N)NC(=O)[C@H](CCSC)NC(=O)CNC(=O)CNC(=O)[C@H](CO)NC(=O)[C@H](CC(C)C)NC(=O)[C@@H]1CCCN1C(=O)[C@H](CO)NC(=O)[C@H](CC(N)=O)NC(=O)[C@H](CC(C)C)NC(=O)[C@H](C)NC(=O)[C@@H](NC(=O)[C@H](CC(C)C)NC(=O)[C@H](Cc1c[nH]cn1)NC(=O)[C@H](CC(C)C)NC(=O)[C@@H](NC(=O)[C@@H]1CCCN1C(=O)[C@H](CCC(N)=O)NC(=O)[C@H](Cc1ccccc1)NC(=O)[C@H](CC(=O)O)NC(=O)[C@H](CCCNC(=N)N)NC(=O)[C@H](Cc1c[nH]cn1)NC(=O)[C@@H](NC(=O)[C@H](Cc1c[nH]cn1)NC(C)=O)[C@@H](C)O)C(C)C)C(C)C)C(=O)N[C@@H](CCCNC(=N)N)C(=O)NCC(=O)N[C@@H](C)C(=O)N[C@@H](CC(=O)O)C(N)=O [Polypeptide P2T2] (Ac-HTHRDFQPVLHLVALNSPLSGGMRGIRGAD-NH2),IC50 (ug/ml) HUVEC,[2],1506.1 µg/mL
same,"Cell Survival (%), 1 mg/ml of polypeptide, HUVEC",[2],46%
same,biological activity compared with P2,[2]; inhibition of HUVEC and HepG2,lower biological activity than P2
same,IC50 (ug/ml) HepG2,tumor cell HepG2,2169.6 µg/mL
same,"Cell Survival (%), 1 mg/ml of polypeptide, HepG2",tumor cell HepG2; 1,55%
"endostar: marketed recombinant human endostatin drug, SEQ ID NO: 10 (protein, Recombinant human endostatin drug, endostar) MGGSHHHHHHSHRDFQPVLHLVALNAPLSGGMRGIRGADFQCFQQARAVGLAGTFRAFLSSRLQDLYSIVRRADRAAVPIVNLKDELLFPSWEALFSGSEGPLKPGARIFSFDGKDVLRHPTWPQKSVWHGSDPNGRRLTESYCETWRTEAPSATGQASSLLGGRLLGQSAASCHHAYIVLCIENSFMTASK","Cell Survival (%), 1 mg/ml of polypeptide, HUVEC",[2],82%
same,"Cell Survival (%), 1 mg/ml of polypeptide, HepG2",tumor cell HepG2; 1 mg/ml,91%
same,Tumor inhibitor rate (%),[1],28.5%
"endostatin: Recombinant human endostatin, SEQ ID NO: 1, commercially available (protein, listed as Homo sapiens) HSHRDFQPVLHLVALNSPLSGGMRGIRGADFQCFQQARAVGLAGTFRAFLSSRLQDLYSIVRRADRAAVPIVNLKDELLFPSWEALFSGSEGPLKPGARIFSFDGKDVLRHPTWPQKSVWHGSDPNGRRLTESYCETWRTEAPSATGQASSLLGGRLLGQSAASCHHAYIVLCIENSFMTASK","Cell Survival (%), 1 mg/ml of polypeptide, HUVEC",[2],70%
same,IC50 (ug/ml) HepG2,tumor cell HepG2,2245.4 µg/mL
same,"Cell Survival (%), 1 mg/ml of polypeptide, HepG2",tumor cell HepG2; 1 mg/ml,64%
same,Tumor inhibitor rate (%),[1],41.2%
